Key:
K. pneumoniae ST258 [1] = assay: Potentiation of additional antibiotics (COMPAN1F plates), MIC; assay type: cell-based, Klebsiella pneumoniae; conditions: for MIC of antibiotic in presence of peptidomimetic 1: + 1 μM peptidomimetic 1; for MIC of antibiotic in presence of peptidomimetic 15: + 1 μM peptidomimetic 15; for MIC of antibiotic in presence of peptidomimetic 26: + 1 μM peptidomimetic 26; for MIC: Klebsiella pneumoniae, read-out: MIC of antibiotic alone; for MIC / MIC of antibiotic alone: no peptidomimetic
Method: (§1) Minimal inhibitory concentrations (MICs) of peptidomimetics, antibiotics and their combinations were determined by broth microdilution according to the Clinical Laboratory Standards Institute performance standards (Clinical and Laboratory Standards Institute, [2013]). […] Since rifampicin and azithromycin mainly are used to treat infections with Gram-positive pathogens only CLSI clinical breakpoints were available for such bacteria. […] Potentiation of additional antibiotics by peptidomimetics was determined by using commercial 96-well plates containing varied concentrations of standard antibiotics (COMPAN1F; Trek Diagnostic Systems Inc.). The peptidomimetics were added immediately prior to inoculation with pathogen, and then MICs were determined as above. The MICs of peptidomimetic/antibiotic combinations were determined according to the method above, and the concentration ratios were selected based upon checkerboard results with 2:1 and 1:4 ratio of peptidomimetic with rifampicin or azithromycin, respectively. Minimal bactericidal concentrations (MBCs) were determined by using growth-curve assay plates. MIC plates were prepared as above, and then the plates were incubated at 37°C with continuous shaking. Growth was recorded at 10 min intervals as optical density (OD) at 600 nm during 24 h. At 24 h, for wells without growth, a sample was diluted 10-fold in sterile saline (0.9% sodium chloride) and plated onto MHA, following CLSI guidelines (Clinical and Laboratory Standards Institute, [1999]).

E. coli ST131 = assay: as above; assay type: cell-based, Escherichia coli; conditions: for MIC of antibiotic in presence of peptidomimetic 26: + 0.25 μM peptidomimetic 26; for MIC of antibiotic in presence of peptidomimetic 1: + 0.5 μM peptidomimetic 1; for MIC of antibiotic in presence of peptidomimetic 15: + 0.5 μM peptidomimetic 15; for MIC: Escherichia coli, read-out: MIC of antibiotic alone; for MIC / MIC of antibiotic alone: no peptidomimetic
Method: as §1

K. pneumoniae ST258 [2] = conditions: checkerboard
Method: The potential synergistic effects in peptidomimetic-antibiotic combinations were assessed by using a two-dimensional checkerboard assay (Garcia, [2010]). Briefly, twofold dilutions of peptide and antibiotic were prepared in MBH II media along the X- and Y-axis, respectively, in 96-well plates. The inoculum was added to the plates, and subsequently these were incubated for 18–20 h. All steps for inoculum preparation and broth microdilution were in accordance with the CLSI guidelines (Clinical and Laboratory Standards Institute, [2013]). The fractional inhibitory concentration index (FICI) was calculated as [MICA(A+B)/MICA(alone)] + [MICB(A+B)/MICB(alone)], where MICA(A+B) represents the MIC of antibiotic (A) in combination with peptidomimetic (B), while MICB(A+B) represents the MIC of peptidomimetic (B) in combination with antibiotic (A). MICA(alone) and MICB(alone) represent the MIC of each compound individually. FICI values of ≤0.5 were interpreted as synergy.

Compound	MIC of antibiotic in presence of peptidomimetic 1 (K. pneumoniae ST258 [1])	MIC of antibiotic in presence of peptidomimetic 15 (K. pneumoniae ST258 [1])	MIC of antibiotic in presence of peptidomimetic 26 (K. pneumoniae ST258 [1])	MIC (K. pneumoniae ST258 [1])	MIC of antibiotic alone (K. pneumoniae ST258 [1])	MIC of antibiotic in presence of peptidomimetic 26 (E. coli ST131)	MIC of antibiotic in presence of peptidomimetic 1 (E. coli ST131)	MIC of antibiotic in presence of peptidomimetic 15 (E. coli ST131)	MIC (E. coli ST131)	Antibiotic MIC alone (K. pneumoniae ST258 [2])	MIC of antibiotic alone (E. coli ST131)
CCC[C@@H]1C[C@@H](C(=O)N[C@@H]([C@H]2O[C@H](SC)[C@H](O)[C@@H](O)[C@H]2O)[C@H](C)Cl)N(C)C1 [Clindamycin]	>4 µg/mL	>4 µg/mL	2 µg/mL	> 4 µg/mL	>4 µg/mL	>4 µg/mL	4 µg/mL	>4 µg/mL	> 4 µg/mL	125 µg/mL	
CN1CCN(c2c(F)cc3c(=O)c(C(=O)O)cn4c3c2OCN4C)CC1 [Marbofloxacin]	>2 µg/mL	>2 µg/mL	>2 µg/mL	> 2 µg/mL		>2 µg/mL	>2 µg/mL	>2 µg/mL	> 2 µg/mL		
CO/N=C(\C(=O)N[C@@H]1C(=O)N2C(C(=O)O)=C(CSC(=O)c3ccco3)CS[C@H]12)c1csc(N)n1 [Ceftiofur]	>4 µg/mL	>4 µg/mL	>4 µg/mL	> 4 µg/mL			>4 µg/mL	>4 µg/mL	> 4 µg/mL		
C[C@@H](O)[C@H]1C(=O)N2C(C(=O)O)=C(SCCN=CN)C[C@H]12 [Imipenem]	>8 µg/mL	>8 µg/mL	>8 µg/mL	> 8 µg/mL		≤1 µg/mL	≤1 µg/mL	≤1 µg/mL	≤ 1 µg/mL		
CC1(C)S[C@@H]2[C@H](NC(=O)[C@H](C(=O)O)c3ccsc3)C(=O)N2[C@H]1C(=O)O [Ticarcillin]	>64 µg/mL	>64 µg/mL	>64 µg/mL	> 64 µg/mL			>64 µg/mL	>64 µg/mL	> 64 µg/mL		
CC1(C)S[C@@H]2[C@H](NC(=O)[C@H](N)c3ccccc3)C(=O)N2[C@H]1C(=O)O [Ampicillin]	>16 µg/mL	>16 µg/mL	>16 µg/mL	> 16 µg/mL		>16 µg/mL	>16 µg/mL	>16 µg/mL	> 16 µg/mL		
Penicillin	>8 µg/mL	>8 µg/mL	>8 µg/mL		>8 µg/mL	>8 µg/mL	>8 µg/mL	>8 µg/mL			>8 µg/mL
Cc1nnc(SCC2=C(C(=O)O)N3C(=O)[C@@H](NC(=O)Cn4cnnn4)[C@H]3SC2)s1 [Cefazolin]	>16 µg/mL	>16 µg/mL	>16 µg/mL	> 16 µg/mL		>16 µg/mL	>16 µg/mL	>16 µg/mL	> 16 µg/mL		
Cc1onc(-c2ccccc2)c1C(=O)N[C@@H]1C(=O)N2[C@@H]1SC(C)(C)[C@@H]2C(=O)O [Oxacillin]	>4 µg/mL	>4 µg/mL	>4 µg/mL	> 4 µg/mL		>4 µg/mL	>4 µg/mL	>4 µg/mL	> 4 µg/mL		
Amoxicillin/clavulanic acid [Amoxicillin/clavulanic acid (2:1)]	>32 µg/mL	>32 µg/mL	>32 µg/mL		>32 µg/mL	8/4	8 µg/mL	8 µg/mL			16 µg/mL
Ticarcillin/clavulanic acid [Ticarcillin/clavulanic acid (2:1)]	>64 µg/mL	>64 µg/mL	>64 µg/mL		>64 µg/mL		16 µg/mL	32 µg/mL			64 µg/mL
C[C@H]1c2cccc(O)c2C(=O)C2=C(O)[C@]3(O)C(=O)C(C(N)=O)=C(O)[C@@H](N(C)C)[C@@H]3[C@@H](O)[C@@H]21 [Doxycycline]	≤2 µg/mL	≤2 µg/mL	≤2 µg/mL	4 µg/mL		≤2 µg/mL	≤2 µg/mL	≤2 µg/mL	≤ 2 µg/mL		
CO[C@@]1(NC(=O)Cc2cccs2)C(=O)N2C(C(=O)O)=C(COC(N)=O)CS[C@@H]21 [Cefoxitin]	>16 µg/mL	>16 µg/mL	>16 µg/mL	> 16 µg/mL			>16 µg/mL	4 µg/mL	8 µg/mL		

Source: PMC6615261, “Repurposing Azithromycin and Rifampicin Against Gram-Negative Pathogens by Combination With Peptidomimetics” (Frontiers in Cellular and Infection Microbiology, 2019)
